# Results as given in patent publication US6492416B1, “4,5-diaryl-3(2H)-furanone derivatives as cyclooxygenase-2 inhibitors” (Pacific Corporation, priority 1999, dated 2002).
# Tests used:
# male SD rat = test: Gastric safety studies (Ulcer Index); format: in vivo; details: daily dose 30 mg/kg body weight oral for 7 days, mean of animals' scores
# Protocol: Gastric safety for compounds of this invention was evaluated as follows [Otterness et al., Laboratory Models for Testing Nonsteroidal Anti-inflammatory Drugs in Nonsteroidal Anti-inflammatory Drugs; ed John Wiley & Sons pp 217-227 (1985); Wiley Interscience; New York]: A designated dose of a compound of this invention suspended in 1% methylcellulose solution was administered daily once for 7 days to a male SD rat by oral gavage. The animal was sacrificed and the inner wall of the stomach was examined visually 4 hours after the last administration (the 7th day administration). The gastric safety was assessed by the “Ulcer Index” as defined as the following scores: […]
# Score 1: apparently normal stomach.
# Score 2: one or more than one ulcer site of pin-point size only.
# Score 3: erosions of 2 or fewer than 2, which may be accompanied by ulcers of pin-point size (an erosion is defied by any ulcerative lesion of any dimension greater than 1 mm).
# Score 4: erosions more than 2, which may be accompanied by ulcers of pin-point size.
# Score 5: erosions accompanied by hemorrhage.
# In evaluating the gastric safety of a compound of this invention, usually 8 animals were used. The ulcer index for a compound was calculated by averaging of the ulcer index of each animal. The following Table 5 illustrates gastric safety of some COX-2 selective inhibitors of this invention.
# COX-2 = molecular target: T1, COX-2 (Mus musculus, UniProt Q05769); test: Evaluation of COX-2 activity: PGE2 formation in aspirin-treated, LPS-stimulated mouse peritoneal macrophages; format: cell-based
# T1 sequence (Q05769 18-604): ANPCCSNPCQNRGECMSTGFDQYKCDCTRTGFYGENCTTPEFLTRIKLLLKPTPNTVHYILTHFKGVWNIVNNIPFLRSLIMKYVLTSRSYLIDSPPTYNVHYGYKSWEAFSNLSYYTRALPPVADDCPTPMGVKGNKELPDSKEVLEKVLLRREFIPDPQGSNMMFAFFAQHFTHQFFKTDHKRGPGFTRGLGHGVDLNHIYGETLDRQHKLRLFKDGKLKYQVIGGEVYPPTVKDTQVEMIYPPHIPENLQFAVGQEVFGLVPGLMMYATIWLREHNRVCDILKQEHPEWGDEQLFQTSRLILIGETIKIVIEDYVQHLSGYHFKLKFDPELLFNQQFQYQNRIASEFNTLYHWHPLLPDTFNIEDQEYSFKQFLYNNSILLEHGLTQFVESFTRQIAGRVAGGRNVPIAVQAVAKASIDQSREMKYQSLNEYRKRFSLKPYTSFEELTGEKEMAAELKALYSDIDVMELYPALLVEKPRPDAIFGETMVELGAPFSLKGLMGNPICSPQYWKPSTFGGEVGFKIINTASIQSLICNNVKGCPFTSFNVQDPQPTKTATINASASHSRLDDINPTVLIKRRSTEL
# Procedure, shortened: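 PGE2 output, quantified by radio- or enzyme-immunoassay, was read after 10 min exposure of cells to compound with 10 μM arachidonic acid. Cells were mouse peritoneal macrophages, COX-1 knocked out with 500 μM aspirin and COX-2 induced by 10 μg/ml LPS over 16 h. IC50 derived from 4–5 concentrations.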
# COX-1 = molecular target: T2, COX-1 (Mus musculus, UniProt P22437); test: Evaluation of COX-1 activity: PGE2 formation in mouse peritoneal macrophages without aspirin and LPS treatment; format: cell-based
# T2 sequence (P22437 27-602): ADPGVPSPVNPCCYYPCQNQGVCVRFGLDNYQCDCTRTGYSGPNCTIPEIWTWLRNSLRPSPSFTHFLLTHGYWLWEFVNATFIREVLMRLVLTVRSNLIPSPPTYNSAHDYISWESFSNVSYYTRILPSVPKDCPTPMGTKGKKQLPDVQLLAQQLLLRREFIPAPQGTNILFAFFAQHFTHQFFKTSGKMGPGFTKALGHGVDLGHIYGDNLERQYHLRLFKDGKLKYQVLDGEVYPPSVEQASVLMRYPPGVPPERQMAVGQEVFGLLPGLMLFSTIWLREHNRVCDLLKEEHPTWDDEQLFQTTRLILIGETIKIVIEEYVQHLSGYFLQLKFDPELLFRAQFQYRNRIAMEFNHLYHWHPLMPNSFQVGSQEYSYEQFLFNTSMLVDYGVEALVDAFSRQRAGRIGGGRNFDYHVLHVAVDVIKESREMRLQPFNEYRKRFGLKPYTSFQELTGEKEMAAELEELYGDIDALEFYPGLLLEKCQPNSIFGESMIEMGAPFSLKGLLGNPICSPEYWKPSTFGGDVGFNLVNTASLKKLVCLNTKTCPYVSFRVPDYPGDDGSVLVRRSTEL
# Procedure, shortened: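 Peritoneal macrophages from C57BL/6 mice, without aspirin or LPS treatment, were plated at 1×10^6 cells/ml and fixed 2 h at 37 °C. Cells were preincubated 10 min, then given 10 μM arachidonic acid plus compound for 10 min; PGE2 was measured by RIA or EIA. IC50 came from 4–5 concentrations.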
# [1] = Pharmacokinetic studies in rats; format: in vivo, rat
# Protocol: An appropriate amount of a compound suspended 1% aqueous methylcellulose solution was administered to a male SD rat by oral gavage. Blood samples were collected from the retro-orbital sinus at designated times over 24˜48 hours. Plasma was separated from each blood sample by centrifugation and the plasma was stored at 4° C. until analysis. The plasma samples prepared thereby were subjected to analysis by reverse phase HPLC (high performance liquid chromatography) using an appropriate internal standard.
# [2] = test system: male Sprague-Dawley (SD) rats; test: Carrageenan-induced foot edema in rats (CFE); format: in vivo; details: rat, paw volume 3 hours after Carrageenan
# Protocol: An appropriate amount of a compound of this invention suspended in 1% methylcellulose (MC) solution was administered to male Sprague-Dawley (SD) rats weighing 150˜200 g by oral gavage. The volume of the administered vehicle for a compound of this invention was controlled to be smaller than 10 ml/kg body weight of the animal. One hour later, 0.1 ml of 1% Carrageenan saline solution was directly injected into the right paw of the rats to induce edema in the paw. The paw volumes at 0 hour and at 3 hours after the injection of Carrageenan were measured by using a displacement plethysmometer (Ugo Basile, Italy). The paw volumes were used to calculate % inhibition of CFE by an amount of a compound of this invention according to the following equation.
# % Inhibition of CFE=(1−Δtreated/Δcontrol)×100
# wherein Δtreated=[paw volume at three hours after the Carrageenan injection−paw volume right after Carrageenan injection] for a drug-administered rat, and Δcontrol=[paw volume at three hours after the Carrageenan injection−paw volume right after Carrageenan injection] for a rat without drug administration.
# In order to determine the inhibitory activity of a compound of this invention at a dose, usually 5 to 8 animals were used both for drug-treated group and for control group.
# ICR mice = test: Acetic acid-induced writhing test; format: in vivo, mouse; details: oral gavage
# Protocol: ICR mice weighing 18˜22 g were maintained in a controlled lighting environment (12 hours on/12 hours off) and fasted overnight prior analgesic testing. Mice were administered with a compound of this invention dissolved in 10:10:80 ethanol/Tween 80/saline or vehicle only by oral gavage. The administered vehicle volume was controlled to be 10 ml/kg body weight. One hour later, the animals were treated with 0.2 ml of 1.2% acetic acid by peritoneal injection. 6 minutes later, the number of abdominal constrictions was counted for a 6 minutes period. The antinociceptive activity was expressed as the reduction in the number of abdominal constrictions, compared with that of the placebo group [J. Med. Chem. 39, 4942 (1996)]. ED50 of the mouse writhing test denotes a dose level at which the number of abdominal constrictions is half that of the placebo group. Ten animals per group were used for this study.
# male SD rats [3] = test: Carrageenan-induced thermal hyperalgesia assay; format: in vivo, rat; details: 3 hours
# Protocol: Male SD rats weighing 170˜220 g were fasted but with free access to water for at leat 16 hours prior to testing. The rats were administered with a compound of this invention suspended in 20 ml 0.5% methylcellulose/0.025% Tween-20, or with vehicle only. Then the rats were given […] of 1% carrageenan in saline or […] saline only into the plantar surface of the left hindpaw by injection. Three hours later, the nociceptive responses to thermal stimuli were assessed as follows: Rats, which were placed in a transparent plastic chamber with a glass floor, were allowed to acclimate to their environment for 10 minutes prior to the testing. The withdrawal latency period in seconds was determined for the control and the compound treated group, and a percent inhibition in the withdrawal latency was calculated to estimate the analgesic effect of the compound [Pain 32, 77 (1988)]. In this study 6 animals were used for each group.
# male SD rats [4] = test: Antiinflammatory potency by adjuvant arthritis (AA); format: in vivo; details: daily oral dose day 14 to day 22, rat
# Protocol: Arthritis was induced in male SD rats weighing 180-200 g by subcutaneous injection of Mycobacterium butyricum mixed in 0.1 ml of incomplete Freund's adjuvanat into the base of the tail. The foot volumes were measured using a displacement plethysomometer 14 days after the injection of the adjuvant. Animals with paw volumes greater than the normal paw volumes (without the adjuvant treatment) by 0.37 ml were selected, and then randomized. A designated daily dose of a compound of this invention, which was suspended in 1% aqueous methylcellulose solution, was administered to the randomized rats with arthritis by oral gavage daily once beginning on day 14 after the injection of the adjuvant. The administration of the compound continued till day 22 after the injection of the adjuvant, and the paw volumes were measured on daily basis using a displacement plethysmometer.
# % Inhibition of AA=(1−Δtreated/Δcontrol)×100
# wherein Δtreated=[(paw volume at day 22)/(paw volume at day 14)−1] for a drug-administered rat, and Δcontrol=[(paw volume at day 22)/(paw volume at day 14)−1] for a rat without drug administration.
# ED50 value was determined b a dose-response curve for each compound.
SMILES,"IC50, μg/ml COX-2 (COX-2)","IC50, μg/ml COX-1 (COX-1)",% Inhibition (CFE) ([2]; oral dose 3 mg/kg body weight),melting point,other results
"CC(=O)c1ccc(C2=C(c3ccc(S(C)(=O)=O)cc3)OC(C)(C)C2=O)cc1 [Example 10, 4-(4-Acetylphenyl)-2,2-dimethyl-5-{4-(methylsulfonyl)phenyl}-3(2H)-furanone]",0.3 µg/mL,50 µg/mL,,,Ulcer Index (1˜5) (male SD rat): 1.2 ± 0.4
"C[S+]([O-])c1ccc(C2=C(c3cccc(Cl)c3)C(=O)C(C)(C)O2)cc1 (stereo not drawn) [Example 393, 4-(3-Chlorophenyl)-2,2-dimethyl-5-{4-(methylsulfinyl)phenyl}-3(2H)-furanone]",0.3 µg/mL,5 µg/mL,,,"biotransformation of the sulfoxide group into the sulfonyl group ([1]; Example 393 orally administered to a SD rat at 10 mg/kg body weight, plasma, HPLC (FIG. 1)): biotransformed into the sulfonyl group"
"COc1ccc2c(c1)c(CC(=O)O)c(C)n2C(=O)c1ccc(Cl)cc1 [indomethacin, reference compound]",,,,,% Inhibition (CFE) ([2]; oral dose 1 mg/kg body weight): 28%; ED50 (mouse writhing) (ICR mice): 7.4 mg/kg body weight; % Inhibition at 1.0 mg/kg body weight (rat hyperalgesia) (male SD rats [3]): 45%
CC1(C)OC(c2ccc(S(N)(=O)=O)c(F)c2)=C(c2ccc(F)cc2)C1=O [Example 303],0.03 µg/mL,3 µg/mL,30%,190 to 192 °C,
CC1(C)OC(c2ccc(S(C)(=O)=O)cc2)=C(c2cccc(C(F)(F)F)c2)C1=O [Example 14],,,32%,115 to 116 °C,Adjuvant Arthritis ED50 (male SD rats [4]): 0.06 mg/kg body weight
CC1(C)OC(c2ccc(S(N)(=O)=O)c(Cl)c2)=C(c2cccc(F)c2)C1=O [Example 369],0.02 µg/mL,50 µg/mL,28%,149 to 150 °C,
"CC1(C)OC(c2ccc(S(C)(=O)=O)cc2)=C(c2cccc(Cl)c2)C1=O [Example 62, 4-(3-Chlorophenyl)-2,2-dimethyl-5-{4-(methylsulfonyl)phenyl}-3(2H)-furanone]",0.01 µg/mL,2 µg/mL,,151 to 152 °C,amounts detected in the plasma ([1]; metabolite in plasma after oral administration of Example 393 to a SD rat at 10 mg/kg body weight (FIG. 1)): appreciable amounts
